Where a name gives a salt, the structure may show the parent alone.
Tests used:
[1] = target: T1, recombinant human 5-HT6 receptor (Homo sapiens, UniProt P50406); experiment: Radioligand binding, [3H]LSD competition in membranes of HEK293 cells expressing 5-HT6; settings: [3H]LSD displacement, pH 7.4, 37° C., read-out: pKi for 5-HT6 (converted)
T1 construct: expressed in transfected cells; membranes
Description: The binding activity of compounds of this invention in vitro was determined as follows. Duplicate determinations of 5-HT6 ligand affinity were made by competing for binding of [^3H]LSD in cell membranes derived from HEK293 cells stably expressing recombinant human 5-HT6 receptor. Duplicate determinations of 5-HT2A ligand affinity were made by competing for binding of [^3H]Ketanserin (3-(2-(4-(4-fluorobenzoyl)piperidinol)ethyl)-2,4(1H,3H)-quinazolinedione) in cell membranes derived from CHO-K1 cells stably expressing recombinant human 5-HT2A receptor. Membranes were prepared from HEK 293 cell lines by the method described by Monsma et al., Molecular Pharmacology, Vol. 43 pp. 320-327 (1993), and from CHO-K1 cell lines as described by Bonhaus et al., Br J Pharmacol. June; 115(4):622-8 (1995).
For estimation of affinity at the 5-HT6 receptor, all determinations were made in assay buffer containing 50 mM Tris-HCl, 10 mM MgSO4, 0.5 mM EDTA, 1 mM ascorbic acid, pH 7.4 at 37° C., in a 250 microliter reaction volume. […]
Assay tubes containing [^3H] […] LSD or [^3H]Ketanserin were determined as radioactive counts per minute using Packard TopCount.
Displacement of [^3H]LSD or [^3H]Ketanserin from the binding sites was quantified by fitting concentration-binding data to a 4-parameter logistic equation: […]

T1 sequence (P50406 whole entry): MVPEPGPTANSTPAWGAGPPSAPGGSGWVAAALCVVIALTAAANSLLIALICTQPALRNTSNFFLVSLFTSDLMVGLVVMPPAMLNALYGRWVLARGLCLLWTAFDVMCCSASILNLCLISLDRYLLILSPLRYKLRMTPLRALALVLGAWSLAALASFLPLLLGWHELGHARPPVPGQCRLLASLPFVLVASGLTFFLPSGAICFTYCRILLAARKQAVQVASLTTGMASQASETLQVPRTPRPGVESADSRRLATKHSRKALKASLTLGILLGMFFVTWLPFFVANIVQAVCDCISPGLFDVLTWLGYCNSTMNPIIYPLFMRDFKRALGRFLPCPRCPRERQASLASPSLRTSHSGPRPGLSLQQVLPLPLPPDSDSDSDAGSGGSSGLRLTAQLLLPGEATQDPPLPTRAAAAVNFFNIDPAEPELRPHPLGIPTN

melting point [°C]	Ki [1] [nM]	Structure (SMILES)
135 to 136		CNCC1CCCc2cc(NS(=O)(=O)c3cccc(F)c3)ccc21 (stereo not shown) (as salt: oxalate) [Compound 5, 3-Fluoro-N-(5-methylaminomethyl-5,6,7,8-tetrahydro-naphthalen-2-yl)-benzenesulfonamide]
176 to 177		CN(c1ccc2c(c1)CCCC2CN)S(=O)(=O)c1cccc(F)c1 (stereo not shown) (as salt: oxalate) [Compound 9, N-(5-Aminomethyl-5,6,7,8-tetrahydro-naphthalen-2-yl)-3-fluoro-N-methyl-benzenesulfonamide]
164 to 165		NCC1CCCc2cc(NS(=O)(=O)c3ccccc3)ccc21 (stereo not shown) [Compound 2, N-(5-Aminomethyl-5,6,7,8-tetrahydro-naphthalen-2-yl)-benzenesulfonamide]
162 to 163		NC(=O)NCC1CCCc2cc(NS(=O)(=O)c3cccc(F)c3)ccc21 (stereo not shown) [Compound 6, 3-Fluoro-N-(5-ureidomethyl-5,6,7,8-tetrahydro-naphthalen-2-yl)-benzenesulfonamide]
143 to 144		O=CNCC1CCCc2cc(NS(=O)(=O)c3cccc(F)c3)ccc21 (stereo not shown) [Compound 7, 3-Fluoro-N-(5-formylaminomethyl-5,6,7,8-tetrahydro-naphthalen-2-yl)-benzenesulfonamide]
136 to 137		CC(=O)NCC1CCCc2cc(NS(=O)(=O)c3cccc(F)c3)ccc21 (stereo not shown) [Compound 8, N-[6-(3-Fluoro-benzenesulfonylamino)-1,2,3,4-tetrahydro-naphthalen-1-ylmethyl]-acetamide]
	~0.138	CNCC1CCCc2cc(NS(=O)(=O)c3ccccc3)ccc21 (stereo not shown) [N-(5-Methylaminomethyl-5,6,7,8-tetrahydro-naphthalen-2-yl)-benzenesulfonamide]

From patent US7531577B2, “Arylsulfonamidyl tetralin derivatives and uses thereof” (Roche Palo Alto LLC, priority 2006, dated 2009)
